Test results: patent US4766140A, “Method of inhibiting aromatase” (Eli Lilly and Company, priority 1984, dated 1988)

Key:
[1] = molecular target: T1, aromatase (Rattus norvegicus, UniProt P22443); assay: Aromatase inhibition in the rat ovarian microsome assay; format: biochemical; conditions: rat ovarian microsomes; substrate (androstenedione) concentration 0.1 μM
T1 construct: ovarian microsomes are obtained from rats treated with pregnant mares serum gonadotropin; from tissue; host or cells: ovarian microsomes from rats treated with pregnant mares serum gonadotropin
T1 sequence (P22443 1-508): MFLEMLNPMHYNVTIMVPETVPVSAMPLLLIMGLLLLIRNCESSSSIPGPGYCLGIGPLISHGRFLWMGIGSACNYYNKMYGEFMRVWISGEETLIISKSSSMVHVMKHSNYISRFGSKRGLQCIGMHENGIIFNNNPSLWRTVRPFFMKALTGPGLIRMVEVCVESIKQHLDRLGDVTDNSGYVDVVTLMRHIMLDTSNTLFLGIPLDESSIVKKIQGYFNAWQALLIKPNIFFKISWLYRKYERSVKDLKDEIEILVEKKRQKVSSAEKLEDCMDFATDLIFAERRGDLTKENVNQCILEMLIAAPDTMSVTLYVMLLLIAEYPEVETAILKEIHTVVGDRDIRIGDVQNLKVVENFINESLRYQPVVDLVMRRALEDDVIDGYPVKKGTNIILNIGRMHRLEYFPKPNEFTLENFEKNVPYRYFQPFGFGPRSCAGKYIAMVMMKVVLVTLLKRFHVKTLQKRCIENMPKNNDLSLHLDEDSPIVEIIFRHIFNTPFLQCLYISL
Method: In this test system, ovarian microsomes are obtained from rats treated with pregnant mares serum gonadotropin. Test compounds are added to reaction vials containing 0.1 μM 4-androstene-3,17-dione, 100,000 dpm 1,2[^3 H]-androstenedione, the microsomes and a NADPH generating system. The concentrations of the inhibitors tested ranged between 0.005 and 10 μM.

[2] = system: DMBA-induced mammary tumors; assay: DMBA-Induced Mammary Tumor Inhibition; format: in vivo, female Sprague-Dawley rats; conditions: 4 mg/kg daily subcutaneously, Test No. I
Method: Mammary tumors were produced in female Sprague-Dawley rats which were 50-60 days old by the gavage administration of 20 mg of 7,12-dimethylbenz[a]anthracene (DMBA). About six weeks after DMBA administration, the mammary glands were palpated at weekly intervals for the appearance of tumors. Whenever one or more tumors appeared and were measurable in an animal, that animal was selected for experimentation. […] Each control and test group contained 8 animals. The test compound was dissolved in corn oil and administered subcutaneously once daily. Every experiment included a group of control rats having tumors and were given corn oil vehicle subcutaneously. […] The area of each tumor was calculated by multiplying the shortest and longest diameters of the tumor. The treatment and measurement of animals continued for 3 weeks at which time the final areas of the tumors were determined. The change in the mean tumor area was determined, and the mean change was analyzed for its significance using Dunnett's t-test.

| EC50 [1] | SMILES | Mean Tumor Area, Finish ([2]; after 3 weeks, statistically different from control, p < 0.05 (control 392.0)) | Mean Tumor Area, Start ([2]; start of test) |
| --- | --- | --- | --- |
| 60 nM | Clc1ccc(C(Cn2ccnc2)OCc2ccsc2Cl)c(Cl)c1 (centres unmarked) [1-(2-[(2-chloro-3-thienyl)-methoxy]-2-[2,4-dichlorophenyl]-ethyl)-1H-imidazole] | – | – |
| 490 nM | c1ccc(CCCn2ccnc2)cc1 [1-(3-phenylpropyl)imidazole] | – | – |
| 630 nM | c1ccc(CCn2ccnc2)cc1 [1-(β-phenylethyl)imidazole] | – | – |
| < 50 nM | O=[N+]([O-])c1ccc(CCn2ccnc2)cc1 [1-[2-(4-nitrophenyl)ethyl]-1H-imidazole] | – | – |
| 1500 nM | COc1ccc(OC)c(C(O)Cn2ccnc2)c1 (stereo not drawn) [α-(2,5-dimethoxyphenyl)-1H-imidazole-1-ethanol nitrate] | – | – |

| SMILES | EC50 [1] | Mean Tumor Area, Finish ([2]; after 3 weeks, statistically different from control, p < 0.05 (control 392.0)) | Mean Tumor Area, Start ([2]; start of test) |
| --- | --- | --- | --- |
| C=CCOC(Cn1ccnc1)c1ccc(Cl)cc1Cl (centres unmarked) [1-[2-(2,4-dichlorophenyl)-2-(2-propenyloxy)ethyl]-1H-imidazole] | 42 nM | 119.0 mm^2 | 55.2 mm^2 |
